Patent US20090221653A1, “7-(2-amino-1-hydroxy-ethyl)-4-hydroxybenzothiazol-2(3H)-one-derivatives as beta2 adrenoreceptor agonists” (AstraZeneca AB, priority 2005, published 2009)
Counter-ions that a name gives are not always drawn.

Experiments:
[1] = molecular target: T1, recombinant human Dopamine Subtype D2s receptors (Homo sapiens, UniProt P14416); assay: Dopamine D2 selectivity assay, inhibition of [3H]-spiperone binding; settings: membranes, [3H]-spiperone 0.16 nM; read-out: D2 bind pIC50 (converted)
T1 construct: purchased Perkin Elmer
Protocol: Membranes containing recombinant human Dopamine Subtype D2s receptors were obtained from Perkin Elmer. These were diluted in Assay Buffer ([…] HEPES, 1 mM EDTA, 120 mM NaCl, 0.1% gelatin, pH 7.4) to provide a final concentration of membranes that gave a clear window between maximum and minimum specific binding.
Assays were performed in U-bottomed 96-well polypropylene plates. […] For each assay plate 8 replicates were obtained for [^3H]-spiperone binding in the presence of 30 μL vehicle (10% (v/v) DMSO in Assay Buffer; defining maximum binding) or 30 μL Haloperidol (10 μM final concentration; defining non-specific binding (NSB)). Membranes were then added to achieve a final volume of 300 μL. The plates were incubated for 2 hours at room temperature and then filtered onto PEI coated GF/B filter plates, pre-soaked for 1 hour in Assay Buffer, using a 96-well plate Tomtec cell harvester. Five washes with 250 μL wash buffer (50 mM HEPES, 1 mM EDTA, 120 mM NaCl, pH 7.4) were performed at 4° C. to remove unbound radioactivity. The plates were dried then sealed from underneath using Packard plate sealers and MicroScint-O (50 μL) was added to each well. The plates were sealed (TopSeal A) and filter-bound radioactivity was measured with a scintillation counter (TopCount, Packard BioScience) using a 3-minute counting protocol. Total specific binding (B0) was determined by subtracting the mean NSB from the mean maximum binding. NSB values were also subtracted from values from all other wells.

Adrenergic β2 = molecular target: T2, Adrenergic β2 (Homo sapiens, UniProt P07550); assay: Alternative Adrenergic β2 Mediated cAMP Production in H292 cells (AlphaScreen cAMP detection); format: cell-based; settings: for β2 Int Act: fraction relative to the maximum activity determined for formoterol, 60 minutes incubation; for EC50: cAMP, test compounds incubated 60 minutes, 300 μM rolipram, read-out: β2 pEC50 (converted)
T2 construct: endogenous in cells; host or cells: H292 cells
Protocol: H292 cells were grown in 225 cm2 flasks incubator at 37° C., 5% CO2 in RPMI medium containing, 10% (v/v) FBS (foetal bovine serum) and 2 mM L-glutamine.
Adherent H292 cells were removed from tissue culture flasks by treatment with Accutase™ cell detachment solution for 15 minutes. Flasks were incubated for 15 minutes in a humidified incubator at 37° C., 5% CO2. Detached cells were re-suspended in RPMI media (containing 10% (v/v) FBS and 2 mM L-glutamine) at 0.05×10^6 cells per mL. 5000 cells in 100 μL were added to each well of a tissue-culture-treated 96-well plate and the cells incubated overnight in a humidified incubator at 37° C., 5% CO2. The culture media was removed and cells were washed twice with 100 μL assay buffer and replaced with 50 μL assay buffer (HBSS solution containing 10 mM HEPES pH7.4 and 5 mM glucose). […] Cells were incubated with rolipram for 10 minutes after which time test compounds were added and the cells were incubated for 60 minutes at room temperature. […] The reaction was stopped by removing supernatants, washing once with 100 μL assay buffer and replacing with 50 μL lysis buffer. The cell monolayer was frozen at −80° C. for 30 minutes (or overnight).
The concentration of cAMP (cyclic adenosine monophosphate) in the cell lysate was determined using AlphaScreen™ methodology. The frozen cell plate was thawed for 20 minutes on a plate shaker then 10 μL of the cell lysate was transferred to a 96-well white plate. 40 μL of mixed AlphaScreen™ detection beads pre-incubated with biotinylated cAMP, was added to each well and the plate incubated at room temperature for 10 hours in the dark. The AlphaScreen™ signal was measured using an EnVision spectrophotometer (Perkin-Elmer Inc.) with the recommended manufacturer's settings. cAMP concentrations were determined by reference to a calibration curve determined in the same experiment using standard cAMP concentrations. Concentration response curves for agonists were constructed and data was fitted to a four parameter logistic equation to determine both the pEC50 and Intrinsic Activity.

β2 receptor = molecular target: T3, β2 receptor (Homo sapiens, UniProt P07550); assay: Adrenergic β2 mediated cAMP production in H292 cells (AlphaScreen cAMP detection); format: cell-based; settings: for Intrinsic Activity: fraction relative to the maximum activity determined for formoterol, 10 minutes incubation; for EC50: cAMP, test compounds incubated 10 minutes, 300 μM rolipram
T3 construct: endogenous in cells; host or cells: H292 cells
Protocol: H292 cells were grown in RPMI (Roswell Park Memorial Institute) medium containing, 10% (v/v) FBS (foetal bovine serum) and 2 mM L-glutamine. Cells were grown in 225 cm2 flasks containing 25 mL media in a humidified incubator at 37° C., 5% CO2. Cells were harvested from the flask and passaged at a 1 in 10 dilution once per week.
The media from flasks containing H292 cells was removed, rinsed with 10 mL PBS (phosphate buffered saline) and replaced with 10 mL Accutase™ cell detachment solution. Flasks were incubated for 15 minutes in a humidified incubator at 37° C., 5% CO2. The cell suspension was counted and the cells re-suspended in RPMI media (containing 10% (v/v) FBS and 2 mM L-glutamine) at 0.05×10^6 cells per mL. 5000 cells in 100 μL were added to each well of a tissue-culture-treated 96-well plate and the cells incubated overnight in a humidified incubator at 37° C., 5% CO2. The culture media was removed, washed twice with 100 μL assay buffer and replaced with 50 μL assay buffer. Cells were rested at room temperature for 20 minutes after which time 25 μL of rolipram (1.2 mM made up in assay buffer containing 2.4% (v/v) dimethylsulphoxide) was added. Cells were incubated with rolipram for 10 minutes after which time test compounds (made up as ×4 concentrated stocks in assay buffer containing 4% (v/v) dimethylsulphoxide) were added and the cells were incubated for 10 minutes at room temperature. Final rolipram concentration in the assay was 300 μM and final vehicle concentration was 1.6% (v/v) dimethylsulphoxide. The reaction was stopped by removing supernatants, washing once with 100 μL assay buffer and replacing with 50 μL lysis buffer. The cell monolayer was frozen at −80° C. for 30 minutes (or overnight).
The concentration of cAMP (cyclic adenosine monophosphate) in the cell lysate was determined using the AlphaScreen™ methodology. The frozen cell plate was thawed for 20 minutes on a plate shaker then 10 μL of the cell lysate was transferred to a 96-well white plate. 40 μL of mixed AlphaScreen™ detection beads (containing equal volumes of donor beads (pre-incubated with biotinylated cAMP in the dark for 30 minutes) and acceptor beads), was added to each well and the plate incubated at room temperature for 10 hours in the dark. The AlphaScreen™ signal was measured using an EnVision spectrophotometer (Perkin-Elmer Inc.) with the recommended manufacturer's settings. cAMP concentrations were determined by reference to a calibration curve determined in the same experiment using standard cAMP concentrations (made up in lysis buffer in a 96-well tissue-culture-treated plate and frozen/thawed alongside the test samples) and detected using the same protocol. Concentration response curves for agonists were constructed to determine both the pEC50 and Intrinsic Activity.

T3 sequence (P07550 whole entry): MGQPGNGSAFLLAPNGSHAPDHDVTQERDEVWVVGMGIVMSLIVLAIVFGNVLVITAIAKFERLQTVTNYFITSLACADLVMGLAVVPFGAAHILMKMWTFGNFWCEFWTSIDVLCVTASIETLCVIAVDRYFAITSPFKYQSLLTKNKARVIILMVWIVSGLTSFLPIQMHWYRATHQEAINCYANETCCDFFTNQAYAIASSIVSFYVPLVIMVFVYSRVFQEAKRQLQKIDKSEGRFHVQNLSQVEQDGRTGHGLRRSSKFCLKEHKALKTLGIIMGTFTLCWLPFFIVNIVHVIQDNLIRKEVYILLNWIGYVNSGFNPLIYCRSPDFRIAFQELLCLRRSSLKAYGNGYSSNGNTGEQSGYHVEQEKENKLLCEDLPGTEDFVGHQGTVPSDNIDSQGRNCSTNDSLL
T2 sequence (P07550 whole entry): as above
T1 sequence (P14416 1-414 isoform P14416-2): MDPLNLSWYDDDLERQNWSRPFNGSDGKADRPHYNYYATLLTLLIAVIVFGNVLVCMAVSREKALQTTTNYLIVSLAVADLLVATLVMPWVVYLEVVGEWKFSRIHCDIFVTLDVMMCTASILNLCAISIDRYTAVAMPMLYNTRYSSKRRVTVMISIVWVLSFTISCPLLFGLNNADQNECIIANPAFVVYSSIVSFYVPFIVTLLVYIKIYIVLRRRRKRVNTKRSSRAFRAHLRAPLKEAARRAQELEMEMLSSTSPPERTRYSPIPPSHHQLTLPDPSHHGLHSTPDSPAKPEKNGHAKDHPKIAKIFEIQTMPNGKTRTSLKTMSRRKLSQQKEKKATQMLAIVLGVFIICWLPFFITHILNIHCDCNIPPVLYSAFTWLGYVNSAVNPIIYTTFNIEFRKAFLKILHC

Compound	IC50 [1] [nM]	β2 Int Act (Adrenergic β2)	Intrinsic Activity (β2 receptor)	EC50 (Adrenergic β2) [nM]	EC50 (β2 receptor) [nM]
Cl.O=c1[nH]c2c(O)ccc([C@@H](O)CNCCSCCCOCCc3ccccc3)c2s1 [Example 8, 4-Hydroxy-7-{(1R)-1-hydroxy-2-[(2-{[3-(2-phenylethoxy)propyl]thio}-ethyl)amino]ethyl}-1,3-benzothiazol-2(3H)-one hydrochloride]	1000	1	1.0	–	–
CN(CCCSCCNC[C@H](O)c1ccc(O)c2[nH]c(=O)sc12)CCc1ccccc1 [Example 12, 4-Hydroxy-7-((1R)-1-hydroxy-2-{[2-({3-[methyl(2-phenylethyl)amino]propyl}-thio)ethyl]amino}ethyl)-1,3-benzothiazol-2(3H)-one trifluoroacetate]	–	1	0.8	3.16	5.01
Cl.O=c1[nH]c2c(O)ccc([C@@H](O)CNCCCSCCCOCCc3ccc(Br)cc3)c2s1 [Example 5, 7-((1R)-2-{[3-({3-[2-(4-Bromophenyl)ethoxy]propyl}thio)propyl]amino}-1-hydroxyethyl)-4-hydroxy-1,3-benzothiazol-2(3-H)-one hydrochloride]	–	0.9	0.7	0.0501	0.0631
